Laboratory results: publication PMC4062594 (Nature chemical biology, 2014)

Key:
[1] = molecular target: T1, PTP1B1-405 V370P (Homo sapiens, UniProt P18031, V370P); test: PTP assay, helix α9′ point mutant; format: biochemical; conditions: S372P, R373P versus wild type
T1 sequence (P18031 1-405 V370P): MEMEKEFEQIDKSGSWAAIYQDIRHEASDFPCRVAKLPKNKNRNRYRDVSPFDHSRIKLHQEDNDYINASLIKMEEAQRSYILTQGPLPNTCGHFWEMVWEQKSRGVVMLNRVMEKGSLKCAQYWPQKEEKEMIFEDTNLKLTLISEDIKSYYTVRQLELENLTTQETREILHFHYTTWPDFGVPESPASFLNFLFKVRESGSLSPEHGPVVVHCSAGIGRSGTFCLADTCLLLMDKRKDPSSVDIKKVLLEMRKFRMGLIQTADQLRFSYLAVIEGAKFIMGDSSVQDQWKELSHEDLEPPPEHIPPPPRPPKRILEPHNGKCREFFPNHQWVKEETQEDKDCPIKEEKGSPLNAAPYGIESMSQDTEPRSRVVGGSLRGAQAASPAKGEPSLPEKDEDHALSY

[2] = patients; cited from earlier work

SMILES: CC(C)[C@@H](CC[C@@H](C)[C@H]1CC[C@H]2[C@@H]3[C@H](O)C[C@H]4C[C@@H](NCCCNCCCCNCCCN)CC[C@]4(C)[C@H]3CC[C@]12C)OS(=O)(=O)O [MSI-1436, Trodusquemine]
- increase of Ki by helix-destabilizing Pro mutations [1]: 10–20 fold
- tolerability [2]: well tolerated
